Data from ChEMBL document CHEMBL2040748, “N-4-t-Butylbenzyl 2-(4-methylsulfonylaminophenyl) propanamide TRPV1 antagonists: Structure-activity relationships in the A-region” (Bioorg Med Chem, 2012).

How the values were obtained:
[1] = target: Transient receptor potential cation channel subfamily V member 1 (Rattus norvegicus) (UniProt O35433); experiment: Antagonist activity at rat TRPV1 receptor expressed in CHO cells assessed as decrease in capsaicin-induced intracellular 45Ca2+ uptake after 1 hr by […] analysis relative to untreated control; assay type: functional, cell-based
[2] = target: T1, Transient receptor potential cation channel subfamily V member 1 (Rattus norvegicus, UniProt O35433); experiment: Displacement of [3H]RTX from rat TRPV1 receptor expressed in CHO cells after 60 mins by scintillation counting; assay type: cell-based
[3] = target: T2, Transient receptor potential cation channel subfamily V member 1 (Homo sapiens, UniProt Q8NER1); experiment: Antagonist activity at human TRPV1 receptor expressed in CHO cells assessed as decrease in capsaicin-induced intracellular 45Ca2+ uptake after 1 hr by […] analysis; assay type: functional, cell-based
[4] = target: T2, Transient receptor potential cation channel subfamily V member 1; experiment: Antagonist activity at human TRPV1 receptor expressed in CHO cells assessed as decrease in pH-induced intracellular 45Ca2+ uptake after 1 hr by […] analysis; assay type: functional, cell-based
[5] = target: T2, Transient receptor potential cation channel subfamily V member 1; experiment: Displacement of [3H]RTX from human TRPV1 receptor expressed in CHO cells after 60 mins by scintillation counting; assay type: cell-based
[6] = target: T1, Transient receptor potential cation channel subfamily V member 1; experiment: Antagonist activity at rat TRPV1 receptor expressed in CHO cells assessed as decrease in capsaicin-induced intracellular 45Ca2+ uptake after 1 hr by […] analysis; assay type: functional, cell-based

T2 sequence (Q8NER1 whole entry): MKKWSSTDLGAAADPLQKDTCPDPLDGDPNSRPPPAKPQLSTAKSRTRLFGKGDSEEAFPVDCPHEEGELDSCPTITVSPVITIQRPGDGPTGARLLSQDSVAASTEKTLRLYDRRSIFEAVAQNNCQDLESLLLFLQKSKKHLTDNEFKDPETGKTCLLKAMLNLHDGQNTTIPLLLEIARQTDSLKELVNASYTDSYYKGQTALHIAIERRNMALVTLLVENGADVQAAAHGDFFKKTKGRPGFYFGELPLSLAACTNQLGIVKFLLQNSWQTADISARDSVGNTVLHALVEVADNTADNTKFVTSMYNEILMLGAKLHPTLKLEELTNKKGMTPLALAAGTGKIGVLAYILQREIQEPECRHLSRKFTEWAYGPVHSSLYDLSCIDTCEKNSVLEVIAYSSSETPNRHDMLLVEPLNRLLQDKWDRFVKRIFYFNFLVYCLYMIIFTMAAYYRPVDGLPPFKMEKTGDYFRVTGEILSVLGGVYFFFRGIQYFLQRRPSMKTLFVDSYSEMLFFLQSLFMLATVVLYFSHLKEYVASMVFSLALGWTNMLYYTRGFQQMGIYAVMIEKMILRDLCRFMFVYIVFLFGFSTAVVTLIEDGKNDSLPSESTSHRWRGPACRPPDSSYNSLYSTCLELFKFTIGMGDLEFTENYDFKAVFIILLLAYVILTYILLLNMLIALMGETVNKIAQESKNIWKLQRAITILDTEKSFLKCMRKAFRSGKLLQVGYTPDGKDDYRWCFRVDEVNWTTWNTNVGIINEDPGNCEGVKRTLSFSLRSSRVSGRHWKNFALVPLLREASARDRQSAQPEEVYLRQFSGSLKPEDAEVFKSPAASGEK
T1 sequence (O35433 whole entry): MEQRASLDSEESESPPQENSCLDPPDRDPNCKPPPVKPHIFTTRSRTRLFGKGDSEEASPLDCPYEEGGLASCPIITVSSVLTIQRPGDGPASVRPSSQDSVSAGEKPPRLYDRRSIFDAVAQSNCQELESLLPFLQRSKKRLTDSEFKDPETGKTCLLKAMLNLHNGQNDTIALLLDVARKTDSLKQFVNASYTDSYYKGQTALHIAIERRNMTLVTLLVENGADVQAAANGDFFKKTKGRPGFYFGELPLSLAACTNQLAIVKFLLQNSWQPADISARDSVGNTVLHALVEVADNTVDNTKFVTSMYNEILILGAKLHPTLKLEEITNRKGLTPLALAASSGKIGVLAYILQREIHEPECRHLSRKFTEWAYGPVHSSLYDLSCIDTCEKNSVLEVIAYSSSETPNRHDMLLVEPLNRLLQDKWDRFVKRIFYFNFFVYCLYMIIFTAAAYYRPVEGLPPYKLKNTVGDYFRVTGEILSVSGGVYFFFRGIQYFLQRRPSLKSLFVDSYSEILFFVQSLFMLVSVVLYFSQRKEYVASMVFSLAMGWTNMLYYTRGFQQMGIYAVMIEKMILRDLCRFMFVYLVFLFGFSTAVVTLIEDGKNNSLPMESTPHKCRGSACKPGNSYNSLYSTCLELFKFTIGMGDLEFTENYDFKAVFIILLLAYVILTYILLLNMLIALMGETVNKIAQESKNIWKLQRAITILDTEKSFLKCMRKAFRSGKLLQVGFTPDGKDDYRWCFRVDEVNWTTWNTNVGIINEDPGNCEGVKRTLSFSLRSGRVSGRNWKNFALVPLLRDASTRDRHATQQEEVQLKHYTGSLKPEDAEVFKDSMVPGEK
Chain of Transient receptor potential cation channel subfamily V member 1 (Rattus norvegicus) (O35433 whole entry): as above

Efficacy [1] [%]	Ki ([2]; read-out: Ki) [nM]	Ki [3] [nM]	Ki [4] [nM]	Ki [5] [nM]	Ki [6] [nM]	further results	Structure (SMILES)
84	–	–	–	–	–	–	COc1cc(CNC(=S)NCc2ccc(C(C)(C)C)cc2)ccc1NS(C)(=O)=O
13	7000	–	–	–	–	–	CC(C(=O)NCc1ccc(C(C)(C)C)cc1)c1ccc(NS(C)(=O)=O)c(N2CCN(C(=O)OC(C)(C)C)CC2)c1 (centres undefined)
–	750	217	440	2590	186	–	C[C@@H](C(=O)NCc1ccc(C(C)(C)C)cc1)c1ccc(NS(C)(=O)=O)c(F)c1
–	–	–	–	–	–	Ki ([2]; cho): Active	CC(C(=O)NCc1ccc(C(C)(C)C)cc1)c1ccc(NS(C)(=O)=O)c(N2CCCCC2)c1 (centres undefined)
–	32.8	–	–	–	18.9	–	Cc1cc(C(C)C(=O)NCc2ccc(C(C)(C)C)cc2)ccc1NS(C)(=O)=O (centres undefined)
16	–	–	–	–	–	–	CC(C(=O)NCc1ccc(C(C)(C)C)cc1)c1ccc(NS(C)(=O)=O)c(C(=O)OC(C)(C)C)c1 (centres undefined)
–	24.4	0.49	8.3	15.8	4.16	–	C[C@H](C(=O)NCc1ccc(C(C)(C)C)cc1)c1ccc(NS(C)(=O)=O)c(F)c1
–	–	–	–	–	–	Ki ([2]; cho): Active	CC(C(=O)NCc1ccc(C(C)(C)C)cc1)c1ccc(NS(C)(=O)=O)c(N2CCOCC2)c1 (centres undefined)
–	46.2	5.1	12.7	89	7.6	–	CC(C(=O)NCc1ccc(C(C)(C)C)cc1)c1ccc(NS(C)(=O)=O)c(F)c1 (racemic)
23	–	–	–	–	–	–	CC(C(=O)NCc1ccc(C(C)(C)C)cc1)c1ccc(NS(C)(=O)=O)c(C(=O)NCc2ccccc2)c1 (centres undefined)
